Source: US20110195924A1, “Methods of Inhibiting the Interaction Between S100P and the Receptor for Advanced Glycation End-Products” (priority 2008, published 2011)
“Also recorded” adds a separate entry of the source.

Legend:
NFκB activity = assay: S100P stimulated NFκB luciferase reporter in MPanc-96 cells; type: cell-based, Human; settings: S100P 100 nM, 5 hours
Method: MPanc-96 pancreatic cancer cell lines stably expressing an NFκB luciferase reporter were examined for the effects of S100P, cromolyn and C5. Cells were plated at 5.0×10^3 cells/well, treated for 5 hours with 100 nM of S100P, with or without cromolyn and C5 (1 μM), and activity of a luciferase gene driven by the NFkB promoter was analyzed. P=0.05 C5 versus cromolyn. Two-tailed two-sample (unpaired) Student's t-tests were used to determine P values.

S100B with RAGE = target: T1, S100B with RAGE (Homo sapiens, UniProt P04271); assay: ELISA of S100B binding to RAGE (sRAGE coated plate)
T1 sequence (P04271 1-92): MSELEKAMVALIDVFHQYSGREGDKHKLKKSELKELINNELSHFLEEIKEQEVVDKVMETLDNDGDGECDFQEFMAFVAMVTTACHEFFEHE
Excerpt: After removing un-bound S100B by washing with detergent, bound S100B and RAGE complex was quantified by adding HRP labeled antibody against S100B.

S100P binding with RAGE = target: T2, S100P binding with RAGE (Homo sapiens, UniProt P25815); assay: ELISA of S100P binding to RAGE (sRAGE coated plate)
T2 construct: full-length human S100P cDNA (NM_005980) was cloned into the pTrcHis2 vector; His; made in house; host or cells: bacteria (S100P)
T2 sequence (P25815 1-95): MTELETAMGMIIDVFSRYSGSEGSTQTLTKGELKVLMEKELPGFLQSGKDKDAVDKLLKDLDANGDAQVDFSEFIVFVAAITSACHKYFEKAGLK
Method: After removing un-bound S100P by washing with detergent, the bound S100P and RAGE complex was quantified by adding HRP labeled antibody against S100P. *, P=0.04 C5 1 μM versus cromolyn 5 μM. Two-tailed two-sample (unpaired) Student's t-tests were used to determine P values.
The plate was washed and the amount of bound S100P was quantitated using anti-S100P antibody.
The binding of S100P to RAGE was determined using an ELISA assay. sRAGE was attached to the dish and recombinant S100P (50 ng) was added with or without the indicated concentrations of cromolyn analogs. The plate was washed and the amount of bound S100P was quantitated using anti-S100P antibody.

MPanc-96 cells = assay: MPanc-96 cell apoptosis by flow cytometry, alone or with gemcitabine; type: cell-based, Human; settings: 100 and 1000 nM, 72 hours
Method: FIG. 11 compares the effects of cromolyn and C5 alone and in combination with gemcitabine on MPanc-96 cell apoptosis. MPanc-96 cells were treated with cromolyn or C5 (100 and 1000 nM) with (+) or without (−) gemcitabine (10 μM). Apoptosis was analyzed after 72 hours by flow cytometry.

BxPC-3 cells = assay: BxPC-3 cell viability, alone or with gemcitabine; type: cell-based; settings: 72 hours
Method: BxPC-3 cells were plated at 1.0×10^3 cells/well and treated with 0 μM, 1 μM, 10 μM, and 100 μM of cromolyn or C5 alone or in combination with gemcitabine 1 μM and cell viability was analyzed after 72 hours. Two-tailed two-sample (unpaired) Student's t-tests were used to determine P values. […] BxPC-3 cells were plated at 1.0×10^3 cells/well and treated with either 100 μM of cromolyn or 1 μM C5 alone or in combination with gemcitabine (1 μM) and cell viability was analyzed after 72 hours.

pancreatic cancer cells = assay: Apoptosis of pancreatic cancer cells with cromolyn analogs and cytotoxic drugs; type: cell-based
Method: (§1) Various cromolyn-based analogs were developed. The effects of the analogs on binding of S100P with RAGE were evaluated for the analogs using a sandwich ELISA. The effectiveness of the analogs to block cancer cell proliferatin and increase apoptosis in vitro were analyzed with and without cisplatin, 5-flurouracil and gemcitabine by MTS and FACS analysis. We also examined the ability of the analogs to inhibit S100P activation of NFkB signaling in cancer cells in vitro and in vivo. Finally, the effects of the novel analogs on tumor growth in vivo was evaluated. One analog, C5OH is shown below:
In this in vitro study, pancreatic cancer cells were treated with gemcitabine alone or in the presence of cromolyn analogs. The cromolyn analogs themselves have very little effect on the rates of cellular apoptosis, supporting their absence of general toxicity. However, all cromolyn analogs increased the killing of pancreatic cancer cells by gemcitabine.

NFkB activity = assay: S100P induced NFkB activity in cancer cells (analogs); type: cell-based
Method: as §1, with “evaluated.” for “evaluated. One analog, C5OH is shown below:”

MPanc96 tumors = assay: MPanc96 pancreatic tumor growth and survival in mice (analogs); type: in vivo; settings: mouse, in vivo
Method: as §1
Animals were implanted with MPanc96 cells, a gemcitabine resistant model of pancreatic cancer, and then treated with gemcitabine, C5OH, or the combination. […] Noteworthy, the addition of the hydroxyl group to the carbon chain in C5 allows easy modifications of this molecule. The hydroxyl can be substituted with fluoride that can be labeled for in vivo PET imaging. This hydroxyl can also be used to develop a pro-drug form of C5 by attaching other components with an ester bond.

SMILES: O=C([O-])c1cc(=O)c2c(OCCCCCOc3cccc4oc(C(=O)[O-])cc(=O)c34)cccc2o1.[Na+].[Na+] [C5, disodium 1,5-bis(2-carboxychromon-5-yloxy)pentane]
- reduction of S100P induced NFκB activity relative to cromolyn at the same dose (NFκB activity; 1 μM): much better than cromolyn
- NFκB activity in pancreatic cancer cells in vitro (NFκB activity; compound 1 μM): inhibit
- interaction of S100B with RAGE (S100B with RAGE): inhibit
- blocking of the interaction / binding of S100P with RAGE (S100P binding with RAGE): blocked
- concentration achieving the same level of S100P inhibition (S100P binding with RAGE; FIG. 7): 100 nM
- potency in blocking S100P binding to RAGE relative to cromolyn or C5 (S100P binding with RAGE; analogs at 10-fold lower concentration than cromolyn): nearly equally potent and more efficient than cromolyn; also recorded: better than cromolyn
- apoptosis in combination with gemcitabine, relative to cromolyn with gemcitabine (MPanc-96 cells; MPanc-96, gemcitabine 10 μM): induced more apoptosis than cromolyn
- MPanc-96 cell viability (MPanc-96 cells; alone and in conjunction with gemcitabine 10 μM): inhibit
- inhibiting cell viability in combination with gemcitabine, relative to cromolyn (BxPC-3 cells; BxPC-3, 1-100 μM with gemcitabine 1 μM): more potent and efficacious
- blocking cell growth alone, relative to cromolyn (BxPC-3 cells; BxPC-3, 10 or 100 μM): more potent and more efficacious than cromolyn
- concentration giving the same level of cell reduction in combination with gemcitabine (BxPC-3 cells; BxPC-3, gemcitabine 1 μM, FIG. 10): 1 µM
- BxPC-3 cell viability (BxPC-3 cells; alone and in conjunction with gemcitabine 1 μM): inhibit
- cancer cell apoptosis in response to various cytoxic treatments, relative to cromolyn (pancreatic cancer cells): at lesser concentrations and to a greater extent than did cromolyn
- killing of pancreatic cancer cells by gemcitabine (pancreatic cancer cells; with gemcitabine, C5 and C5OH at 10-fold lower concentration than cromolyn): worked equally well
- inhibition of S100P induced NFkB activity relative to cromolyn (NFkB activity): more potently and effectively than did cromolyn
- inhibition of tumor growth and survival in vivo, relative to cromolyn (MPanc96 tumors): superior to cromolyn
